Columns and labels:
P388 tumor cells = assay: colonogenic cell survival assay; format: cell-based; conditions: Mus musculus, 120 h, P388, soft agar, 5 days, read-out: Number of colonies Formed (% of Control)
Procedure: (§1) Inhibition of colony formation in soft agar medium (colonogenic cell survival assay) is a more rigorous and direct measurement of cell kill or growth inhibition, and reflects the anti-cancer activity of the test compound. Briefly, tumor cells were cultured in petri dishes in methylcellulose, with or without a phosphonate test compound, and the number of colonies formed during a 5-day incubation period were counted.
The efficacy of 4-hexadecylthio-3-methoxybutane phosphonocholine on the growth of a mouse […] tumor was evaluated. The P388 cell line was cultured in a soft agar in the presence and absence of various concentrations of thioalkylphosphonate for 5 days, the number of tumor colonies formed during this period of time was registered.

L1210 tumor cells = assay: colonogenic cell survival assay; format: cell-based; conditions: Mus musculus, 120 h, L1210, soft agar, read-out: Number of Colonies Formed (% of Control)
Procedure: as §1
The effectiveness of S-thioalkylphosphonate on the growth of a lymphoma cell line was also investigated. L1210 is a mouse B-Cell tumor (lymphoma), was tested in soft agar for susceptibility to the cytotoxic action of thioalkylphosphonate.

WEHI-3B cells = assay: WEHI-3B tumor growth under the skin in mice (S-thioalkylphosphonate); format: in vivo
Procedure: We also provide data on the activity of S-thioalkylphosphonate to delay growth of tumor in the mice. WEHI-3B cells were grown in mice under the skin. Three days after the injection of cancer cells the mice received daily 10 mg/kg thialkylphosphonate for 21 days. The control mice received the saline alone instead of the drug. After 21 days, the tumor volume was measured. […] The tumor volume was measured in CM^3.

[1] = tested on: human colon carcinoma (HT29); assay: effect of S-thioalkylphosphonate on tumor cell line (% of control); format: cell-based; conditions: read-out: HT29 cells (% of control)
[2] = tested on: RPMI7915 cells (human melanoma); assay: as above; format: cell-based

CCCCCCCCCCCCCCCCSCC(CCP(=O)([O-])OCC[N+](C)(C)C)OC (stereo not shown) [S-Thioalkylphosphonocholine, 4-hexadecylthio-3-methoxybutane phosphonocholine]
activity at 0.62 µM (P388 tumor cells; 0.62 μM): 55% | activity at 1.25 µM (P388 tumor cells; 1.25 μM): 43.7% | activity at 2.5 µM (P388 tumor cells; 2.5 μM): 41% | activity at 5 µM (P388 tumor cells; 5 μM): 29% | activity at 10 µM (P388 tumor cells; 10 μM): 3% | activity at 20 µM (P388 tumor cells; 20 μM): 1% | activity at 0.65 µM (L1210 tumor cells; 0.65 μM): 65% | activity at 1.25 µM (L1210 tumor cells; 1.25 μM): 47% | activity at 2.5 µM (L1210 tumor cells; 2.5 μM): 30.5% | activity at 5 µM (L1210 tumor cells; 5 μM): 30% | activity at 10 µM (L1210 tumor cells; 10 μM): 20.5% | activity at 20 µM (L1210 tumor cells; 20 μM): 14% | reduction of tumor size (WEHI-3B cells; after 21 days, daily 10 mg/kg): about 50% | Tumor Volume at Day 21 (WEHI-3B cells; daily 10 mg/kg for 21 days, from three days after injection of cancer cells): .0359 ± 0.128 cm^3 | activity at 0.6 µM ([1]; HT-29, 0.6 μM): 99% | activity at 1.25 µM ([1]; HT-29, 1.25 μM): 83% | activity at 2.5 µM ([1]; HT-29, 2.5 μM): 71% | activity at 5 µM ([1]; HT-29, 5 μM): 54% | activity at 10 µM ([1]; HT-29, 10 μM): 45% | activity at 20 µM ([1]; HT-29, 20 μM): 18% | activity at 40 µM ([1]; HT-29, 40 μM): 1% | activity at 0.6 µM ([2]; RPMI-7951, 0.6 μM): 98% | activity at 1.25 µM ([2]; RPMI-7951, 1.25 μM): 80% | activity at 2.5 µM ([2]; RPMI-7951, 2.5 μM): 78% | activity at 5 µM ([2]; RPMI-7951, 5 μM): 63% | activity at 10 µM ([2]; RPMI-7951, 10 μM): 40% | activity at 20 µM ([2]; RPMI-7951, 20 μM): 29% | activity at 40 µM ([2]; RPMI-7951, 40 μM): 0%
